This note sets out measurements from patent US9187472B2 (AbbVie Inc., priority 2012, dated 2015).

For the assay, the system named is PC3 cells. Kind of assay: NAMPT Cell Proliferation Assay. The note with it: Homo sapiens, PC-3, 120 h, 5 days incubation, cell viability by Cell Titer Glo. The class given is cell-based. The method, boiled down:
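Seed PC3 at 500 cells/well (RPMI, 10% HI-FBS), attach overnight; add compound, 10-fold series 10 μM → 1×10^−5 μM; incubate 5 d, 37° C/5% CO2; luminescent viability readout; fit % inhibition sigmoidally for IC50.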
A general note: In ATP-based viability assays light output follows the ATP content of the culture.
One may read the IC50 as the concentration needed to halve the response being measured. A lower IC50 goes with greater potency. `O=C(NCc1ccn2ccnc2c1)Nc1ccc(C2CCN(C(=O)c3cccc4c3OCCO4)CC2)cc1` [Example 1026, 1-{4-[1-(2,3-dihydro-1,4-benzodioxin-5-ylcarbonyl)piperidin-4-yl]phenyl}-3-(imidazo[1,2-a]pyridin-7-ylmethyl)urea] showed an IC50 of 1.56 nM.
In the case of `O=C(NCc1ccn2ccnc2c1)Nc1ccc(C2CCN(C(=O)c3cncc4ccccc34)CC2)cc1` [Example 1027, 1-(imidazo[1,2-a]pyridin-7-ylmethyl)-3-{4-[1-(isoquinolin-4-ylcarbonyl)piperidin-4-yl]phenyl}urea], half-maximal inhibition (IC50) required 2.28 nM.
Consider `Cc1nc2ccc(C(=O)N3CCC(c4ccc(NC(=O)NCc5ccn6ccnc6c5)cc4)CC3)cc2o1` [Example 1028, 1-(imidazo[1,2-a]pyridin-7-ylmethyl)-3-(4-{1-[(2-methyl-1,3-benzoxazol-6-yl)carbonyl]piperidin-4-yl}phenyl)urea], for which half-maximal inhibition (IC50) required 7.36 nM.
As to `Cc1cc(C(=O)N2CCC(c3ccc(NC(=O)NCc4ccn5ccnc5c4)cc3)CC2)n(C(C)(C)C)n1` [Example 1029, 1-(4-{1-[(1-tert-butyl-3-methyl-1H-pyrazol-5-yl)carbonyl]piperidin-4-yl}phenyl)-3-(imidazo[1,2-a]pyridin-7-ylmethyl)urea], the IC50 is 0.272 nM.
For `N#CC1(C(=O)N2CCC(c3ccc(NC(=O)NCc4ccn5ccnc5c4)cc3)CC2)CCCC1` [Example 1030, 1-(4-{1-[(1-cyanocyclopentyl)carbonyl]piperidin-4-yl}phenyl)-3-(imidazo[1,2-a]pyridin-7-ylmethyl)urea] the value was 2.04 nM.
For `O=C(NCc1ccn2ccnc2c1)Nc1ccc(C2CCN(C(=O)c3cnnc4ccccc34)CC2)cc1` [Example 1031, 1-{4-[1-(cinnolin-4-ylcarbonyl)piperidin-4-yl]phenyl}-3-(imidazo[1,2-a]pyridin-7-ylmethyl)urea] the value was 7.73 nM; for `O=C(NCc1ccn2ccnc2c1)Nc1ccc(C2CCN(C(=O)c3ccc4cccnc4c3)CC2)cc1` [Example 1032, 1-(imidazo[1,2-a]pyridin-7-ylmethyl)-3-{4-[1-(quinolin-7-ylcarbonyl)piperidin-4-yl]phenyl}urea], 8.88 nM.
For `N#Cc1ccc(F)c(C(=O)N2CCC(c3ccc(NC(=O)NCc4ccn5ccnc5c4)cc3)CC2)c1` [Example 1033, 1-{4-[1-(5-cyano-2-fluorobenzoyl)piperidin-4-yl]phenyl}-3-(imidazo[1,2-a]pyridin-7-ylmethyl)urea] the value was 1.97 nM; for `O=C(NCc1ccn2ccnc2c1)Nc1ccc(C2CCN(C(=O)c3cc(C4CC4)no3)CC2)cc1` [Example 1034, 1-(4-{1-[(3-cyclopropyl-1,2-oxazol-5-yl)carbonyl]piperidin-4-yl}phenyl)-3-(imidazo[1,2-a]pyridin-7-ylmethyl)urea], 6.29 nM; for `O=C(NCc1ccn2ccnc2c1)Nc1ccc(C2CCN(C(=O)c3cnc4c(c3)CCCC4)CC2)cc1` [Example 1035, 1-(imidazo[1,2-a]pyridin-7-ylmethyl)-3-{4-[1-(5,6,7,8-tetrahydroquinolin-3-ylcarbonyl)piperidin-4-yl]phenyl}urea], 3.04 nM.
`O=C(NCc1ccn2ccnc2c1)Nc1ccc(C2CCN(C(=O)c3cnc4c(c3)CCCO4)CC2)cc1` [Example 1036, 1-{4-[1-(3,4-dihydro-2H-pyrano[2,3-b]pyridin-6-ylcarbonyl)piperidin-4-yl]phenyl}-3-(imidazo[1,2-a]pyridin-7-ylmethyl)urea] showed an IC50 of 16 nM.
Molecule `O=C(NCc1ccn2ccnc2c1)Nc1ccc(C2CCN(C(=O)c3ccc4ccncc4c3)CC2)cc1` [Example 1037, 1-(imidazo[1,2-a]pyridin-7-ylmethyl)-3-{4-[1-(isoquinolin-7-ylcarbonyl)piperidin-4-yl]phenyl}urea] gave an IC50 of 7.76 nM.
For `O=C(NCc1ccn2ccnc2c1)Nc1ccc(C2CCN(C(=O)c3cnc4ccccc4n3)CC2)cc1` [Example 1038, 1-(imidazo[1,2-a]pyridin-7-ylmethyl)-3-{4-[1-(quinoxalin-2-ylcarbonyl)piperidin-4-yl]phenyl}urea] the value was 7.84 nM.
For `COc1ncccc1/C=C/C(=O)N1CCC(c2ccc(NC(=O)NCc3ccn4ccnc4c3)cc2)CC1` [Example 1039, 1-(imidazo[1,2-a]pyridin-7-ylmethyl)-3-(4-{1-[(2E)-3-(2-methoxypyridin-3-yl)prop-2-enoyl]piperidin-4-yl}phenyl)urea], half-maximal inhibition (IC50) was put at 6.87 nM.
In turn, `O=C(NCc1ccn2ccnc2c1)Nc1ccc(C2CCN(C(=O)/C=C/c3ccccn3)CC2)cc1` [Example 1040, 1-(imidazo[1,2-a]pyridin-7-ylmethyl)-3-(4-{1-[(2E)-3-(pyridin-2-yl)prop-2-enoyl]piperidin-4-yl}phenyl)urea] returned an IC50 of 13.4 nM.
On to `Cc1cc(Cl)c(C(=O)N2CCC(c3ccc(NC(=O)NCc4ccn5ccnc5c4)cc3)CC2)c(C)n1` [Example 1041, 1-(4-{1-[(4-chloro-2,6-dimethylpyridin-3-yl)carbonyl]piperidin-4-yl}phenyl)-3-(imidazo[1,2-a]pyridin-7-ylmethyl)urea], for which 2.41 nM corresponded to half-maximal inhibition (IC50).
Next, `Cc1cccn2cc(C(=O)N3CCC(c4ccc(NC(=O)NCc5ccn6ccnc6c5)cc4)CC3)nc12` [Example 1042, 1-(imidazo[1,2-a]pyridin-7-ylmethyl)-3-(4-{1-[(8-methylimidazo[1,2-a]pyridin-2-yl)carbonyl]piperidin-4-yl}phenyl)urea]: 3.59 nM.
Next, `CCOc1cc(C(=O)N2CCC(c3ccc(NC(=O)NCc4ccn5ccnc5c4)cc3)CC2)ccn1` [Example 1043, 1-(4-{1-[(2-ethoxypyridin-4-yl)carbonyl]piperidin-4-yl}phenyl)-3-(imidazo[1,2-a]pyridin-7-ylmethyl)urea]: 10.4 nM; `Cn1c(C(=O)N2CCC(c3ccc(NC(=O)NCc4ccn5ccnc5c4)cc3)CC2)cc2occc21` [Example 1045, 1-(imidazo[1,2-a]pyridin-7-ylmethyl)-3-(4-{1-[(4-methyl-4H-furo[3,2-b]pyrrol-5-yl)carbonyl]piperidin-4-yl}phenyl)urea]: 6.69 nM.
Next, `CC1Cc2cc(C(=O)N3CCC(c4ccc(NC(=O)NCc5ccn6ccnc6c5)cc4)CC3)ccc2O1` (stereo not shown) [Example 1046, 1-(imidazo[1,2-a]pyridin-7-ylmethyl)-3-(4-{1-[(2-methyl-2,3-dihydro-1-benzofuran-5-yl)carbonyl]piperidin-4-yl}phenyl)urea]: 4.61 nM.
`CCn1ncc(Cl)c1C(=O)N1CCC(c2ccc(NC(=O)NCc3ccn4ccnc4c3)cc2)CC1` [Example 1047, 1-(4-{1-[(4-chloro-1-ethyl-1H-pyrazol-5-yl)carbonyl]piperidin-4-yl}phenyl)-3-(imidazo[1,2-a]pyridin-7-ylmethyl)urea] had an IC50 of 0.205 nM.
Next, `N#Cc1cc(F)cc(C(=O)N2CCC(c3ccc(NC(=O)NCc4ccn5ccnc5c4)cc3)CC2)c1` [Example 1048, 1-{4-[1-(3-cyano-5-fluorobenzoyl)piperidin-4-yl]phenyl}-3-(imidazo[1,2-a]pyridin-7-ylmethyl)urea]: 8.27 nM.
The molecule `O=C(NCc1ccn2ccnc2c1)Nc1ccc(C2CCN(C(=O)c3cccc4ccncc34)CC2)cc1` [Example 1049, 1-(imidazo[1,2-a]pyridin-7-ylmethyl)-3-{4-[1-(isoquinolin-8-ylcarbonyl)piperidin-4-yl]phenyl}urea] returned an IC50 of 2.39 nM.
For `N#Cc1ccc(CC(=O)N2CCC(c3ccc(NC(=O)NCc4ccn5ccnc5c4)cc3)CC2)cc1` [Example 1050, 1-(4-{1-[(4-cyanophenyl)acetyl]piperidin-4-yl}phenyl)-3-(imidazo[1,2-a]pyridin-7-ylmethyl)urea] the value was 23.4 nM.
For `COc1ccsc1C(=O)N1CCC(c2ccc(NC(=O)NCc3ccn4ccnc4c3)cc2)CC1` [Example 1051, 1-(imidazo[1,2-a]pyridin-7-ylmethyl)-3-(4-{1-[(3-methoxythiophen-2-yl)carbonyl]piperidin-4-yl}phenyl)urea] the value was 0.313 nM; for `N#Cc1cc(C(=O)N2CCC(c3ccc(NC(=O)NCc4ccn5ccnc5c4)cc3)CC2)ccc1F` [Example 1052, 1-{4-[1-(3-cyano-4-fluorobenzoyl)piperidin-4-yl]phenyl}-3-(imidazo[1,2-a]pyridin-7-ylmethyl)urea], 27.1 nM.
Next, `O=C(NCc1ccn2ccnc2c1)Nc1ccc(C2CCN(C(=O)c3nc4c(s3)CCCC4)CC2)cc1` [Example 1053, 1-(imidazo[1,2-a]pyridin-7-ylmethyl)-3-{4-[1-(4,5,6,7-tetrahydro-1,3-benzothiazol-2-ylcarbonyl)piperidin-4-yl]phenyl}urea]: 3.41 nM; `O=C(NCc1ccn2ccnc2c1)Nc1ccc(C2CCN(C(=O)c3nc4ccccc4s3)CC2)cc1` [Example 1054, 1-{4-[1-(1,3-benzothiazol-2-ylcarbonyl)piperidin-4-yl]phenyl}-3-(imidazo[1,2-a]pyridin-7-ylmethyl)urea]: 26 nM; `CCc1cc(C(=O)N2CCC(c3ccc(NC(=O)NCc4ccn5ccnc5c4)cc3)CC2)on1` [Example 1055, 1-(4-{1-[(3-ethyl-1,2-oxazol-5-yl)carbonyl]piperidin-4-yl}phenyl)-3-(imidazo[1,2-a]pyridin-7-ylmethyl)urea]: 4.38 nM.
In turn, `C=CCn1nc(C)cc1C(=O)N1CCC(c2ccc(NC(=O)NCc3ccn4ccnc4c3)cc2)CC1` [Example 1056, 1-(imidazo[1,2-a]pyridin-7-ylmethyl)-3-[4-(1-{[3-methyl-1-(prop-2-en-1-yl)-1H-pyrazol-5-yl]carbonyl}piperidin-4-yl)phenyl]urea] registered an IC50 of 1.3 nM.
Next, `O=C(NCc1ccn2ccnc2c1)Nc1ccc(C2CCN(C(=O)c3ccc4snnc4c3)CC2)cc1` [Example 1057, 1-{4-[1-(1,2,3-benzothiadiazol-5-ylcarbonyl)piperidin-4-yl]phenyl}-3-(imidazo[1,2-a]pyridin-7-ylmethyl)urea]: 25.8 nM.
